The record followed here is patent US20150225454A1, “TETRABRANCHED PEPTIDES AND ANALOGUES AS A NEW CLASS OF ANTIMICROBIALS AND THEIR PREPARATION THEREOF” (priority 2012, published 2015).

pEC50: −log10 of the molar value. Where two headings read alike, the source gives them in different places. Where a SMILES comes first, the peptide text is derived from it. Bridges are numbered along the chain shown (N, C = ends). Roman numbers before positions name the chains, in order.

One series deals with IOBA-NHC cells. The class given is cell-based, human. The settings on record: 24 h incubation; read-out: EC50 (concentration that reduces the viable cells by 50%). The procedure, abridged: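 Subconfluent (~70%) IOBA-NHC conjunctival cells, passages 50–80, seeded ~10,000/well and grown 24 h at 37 °C in supplemented DMEM/F12 with 10% FBS. Exposed to peptide at 0.22–225 μM; cytotoxicity followed over time by MultiTox-Fluor […] fluorescence (ex 485/em 520 nm).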

For series [1], the system named is C. albicans. Kind of series: Candidacidal activity (cell viability) in the presence of metal ions. The settings on record: 5.5 μM. In kind it is cell-based. As to the method:
To study the effects of metal ions on viability, the broth solution containing C. albicans (OD600=0.4-0.6) was adjusted to appropriate final concentrations of metal ions, incubated with 5.5 μM of B4010 for 6 h and the cell viability was determined as before after 48 h.

The test system of series [2] is C. albicans. Kind of series: diS-C3-5 membrane depolarisation assay. In kind it is cell-based. As to the method: Change in membrane potential of C. albicans upon addition of B4010 was monitored by the release of potential sensitive probe diS-C3-5 dye. Briefly, 1 ml of overnight grown mid-log phase Candida cells in 5 mM HEPES buffer (pH 7.0) was mixed with 10 μM diS-C3-5 dye and incubated at 37° C. for 1-2 h in a thermo shaker. 800 μL of the dye-loaded cell suspension was transferred to a stirred quartz cuvette and the change in fluorescence intensity was monitored at an emission wavelength (λem) of 670 nm (excitation wavelength, 622 nm) using a Quanta Master spectrofluorimeter (Photon Technology International, NJ, USA). The excitation and emission bandwidths were set at 1 and 2 nm, respectively. Once a constant fluorescence level was achieved, 10 μL of concentrated peptide solution in HEPES buffer was added so that the final concentration of peptide was 0.22-22 μM. The change in fluorescence intensity was monitored continuously for 1 or 2 h. To study the effects of energy poisons and ion-channel inhibitors, the additives were added prior to the addition of 5.5 μM B4010. The change in fluorescence intensity was monitored as before.

The test system of series [3] is C. albicans. The class given is cell-based. The method, then: For the effects of energy poisons and ion channel inhibitors, yeast cells (10^5-10^6 CFU/ml) were incubated for 2 h with or without additives at 37° C. A final concentration of 5.5 μM B4010 peptide was added to the cell suspension and incubated further for another 1.5 h at 37° C. Each cell suspension was further diluted and 100 μl of the cells were plated and incubated at 37° C. SDA plates with additives (and no peptide) served as the positive control. Cell viability was obtained by counting the number of colonies formed in each plate after 48 h incubation at 37° C. The final concentrations of the additives were: CCCP (5 μM), NaN3 (5 mM), 4-AP (1 mM), NPPB (0.5 mM), […] (1 mM) and tetra ethyl ammonium chloride (15 mM). The reported values were averages of two independent duplicate experiments. Control experiments with all the additives were also performed to assess the toxicity of the additives to C. albicans.

The test system of the next series is C. albicans ATCC 10231. Put plainly: Antifungal activity after incubation with trypsin. In kind it is cell-based. Particulars: trypsin:peptide 1:100, 37° C., up to 6 h. The method, then: For all the experiments, unless otherwise stated, ATCC 10231 strain was used. B4010 (1 mg/ml) was incubated with trypsin (enzyme:peptide ratio 1:100) at 37° C. 20 μL aliquot of this mixture was withdrawn at various time intervals (0.5, 1, 2, 4 and 6 h) and mixed with 1 μL of trypsin inhibitor. The antifungal activity of the peptide was determined by adding this mixture to 180 μl of inoculum and monitoring the growth at OD600 for 24 h. Similar experiments performed in the presence of trypsin/trypsin inhibitor (without B4010) were used as a positive control. For assessing the antifungal activity in tear fluid (TF), the peptide was dissolved in freshly collected rabbit TF and incubated at 37° C. for 6 h. After incubation, an equal volume of an overnight culture of C. albicans (˜10^6 CFU/ml) was mixed with peptides in tear fluid and incubated at 37° C. for 24 h. The final concentrations of the peptide were at 4.4, 8.8 and 22 μM. A 100 μL aliquot of serial dilutions (10^2 or 10^3 times) of this mixture were inoculated on a SD agar plate and then incubated for 48 h at 37° C. Culture alone and culture with 50% tear fluid served as the positive control. […]
The peptide B4010 was incubated with trypsin (trypsin:peptide ratio=1:100) at 37° C. An aliquot of this mixture was withdrawn at various time intervals, added to the C. albicans inoculum and the growth was monitored (FIG. 3C).

A further series relates to C. albicans ATCC10231. Put plainly: MIC in the presence of monovalent and divalent metal ions. In kind it is cell-based. As to the method:
For studying the effects of metal ions, SD broth was adjusted with appropriate concentrations of salts to yield a final concentration of 100 and 135 mM for NaCl and KCl and 0.5-2 mM for CaCl2 and MgCl2. MIC determinations were carried out as described above. C. albicans ATCC10231 cells and salts in broth were taken as a positive control. Salts alone (NaCl, KCl, and CaCl2 and MgCl2) in broth or with 22 μM peptide served as a negative control.

On to `CC(C)[C@H](NC(=O)[C@H](CCCCN)NC(=O)[C@H](CCCNC(=N)N)NC(=O)CNC(=O)[C@@H](N)CCCNC(=N)N)C(=O)N[C@H](C(=O)N[C@@H](CCCNC(=N)N)C(=O)N[C@@H](CCCNC(=N)N)C(=O)NCCCC[C@H](NC(=O)[C@H](CCCNC(=N)N)NC(=O)[C@H](CCCNC(=N)N)NC(=O)[C@@H](NC(=O)[C@@H](NC(=O)[C@H](CCCCN)NC(=O)[C@H](CCCNC(=N)N)NC(=O)CNC(=O)[C@@H](N)CCCNC(=N)N)C(C)C)C(C)C)C(=O)NCCCC[C@H](NC(=O)[C@H](CCCCNC(=O)[C@H](CCCNC(=N)N)NC(=O)[C@H](CCCNC(=N)N)NC(=O)[C@@H](NC(=O)[C@@H](NC(=O)[C@H](CCCCN)NC(=O)[C@H](CCCNC(=N)N)NC(=O)CNC(=O)[C@@H](N)CCCNC(=N)N)C(C)C)C(C)C)NC(=O)[C@H](CCCNC(=N)N)NC(=O)[C@H](CCCNC(=N)N)NC(=O)[C@@H](NC(=O)[C@@H](NC(=O)[C@H](CCCCN)NC(=O)[C@H](CCCNC(=N)N)NC(=O)CNC(=O)[C@@H](N)CCCNC(=N)N)C(C)C)C(C)C)C(=O)N[C@@H](CCCCN)C(=O)O)C(C)C` [Peptide B4010] (I: H-RGRKVVRRKKK-OH / II: H-RGRKVVRRK / III: H-RGRKVVRR / IV: H-RGRKVVRR; amide I:9-IV:C, I:10-II:C, II:9-III:C; N-terminus and C-terminus assumed), for which, in the series on IOBA-NHC cells, the pEC50 was 3.66. In the series with C. albicans [1] (high concentration of KCl), the candidacidal activity entry was “slight decrease in the candidacidal activity”. For the same molecule, in the series with C. albicans [1] (presence of monovalent and divalent cations), the cell viability entry is “complete loss of viable cells”. The “reduction in fluorescence intensity in azide-treated cells compared to control cells” value with C. albicans [2] (5 mM NaN3 before B4010) was about 25 fold. The “time course of depolarization” value in the series with C. albicans [2] (upon addition of B4010) is reported as “occurred instantaneously”. The molecule further returned a loss of viability in the series on C. albicans [3] of 54±6%. Moreover, the figures for the “protection from B4010-induced lethality” value with C. albicans [3] (cells pre-incubated with CCCP) and in the series with C. albicans [3] (presence of NaN3) were “partial protection” and “complete protection”, respectively. Besides, in the series with C. albicans [3] (cells pretreated with TEA and 4-AP), the viability entry is “significant loss of viability”. Also, in the series on C. albicans ATCC 10231, the “antifungal activity after trypsin incubation” value was “No loss of antifungal activity”. The “increase in MIC” value in the series with C. albicans ATCC10231 (25 mM KCl) is recorded as 8 fold; in the series with C. albicans ATCC10231 (physiological concentrations of divalent cations), 2 fold. The “increase in MIC compared to medium without KCl” value with C. albicans ATCC10231 (100 mM KCl) is listed as over 16 fold. The “decrease in MIC” value with C. albicans ATCC10231 (135 mM NaCl) is 2 fold. For the same molecule, the “change in MIC” value with C. albicans ATCC10231 (high concentration of Ca2+ and Mg2+ ions) is reported as “two fold increase”.
